Measurements published in patent publication US7348427B2, “Antipathogenic benzamide compounds” (Genesoft Pharmaceuticals, Inc., priority 2001, dated 2008).

Assays:
[1] = tested on: E. faecalis ATCC 29212; experiment: MIC, NCCLS broth microdilution assay; assay type: cell-based, Enterococcus faecalis; details: C = E. faecalis ATCC 29212
Procedure: (§1) Compounds according to this invention were screened for their in vitro activities against selected species of bacteria and fungi. The minimal inhibition concentration (MIC) of these compounds was determined using the National Committee for Clinical Laboratory Standards (NCCLS) broth microdilution assay in microtiter plates, as set forth in: (1) the guidelines of the National. Committee for Clinical Laboratory Standards (NCCLS) Document M7-A4 (NCCLS, 1997); (2) the guidelines of the National Committee for Clinical Laboratory Standards (NCCLS) Document M11-A4 (NCCLS, 1997); and (3) the guidelines and reference method of the National Committee for Clinical Laboratory Standards (NCCLS) Document M27-T (NCCLS, 1995). For antifungal assays, the method recommended in Murray, P R., 1995 Manual of Clinical Microbiology (ASM Press, Washington, D.C.), was employed.

[2] = tested on: Bacillus cereus (ATCC 11778); experiment: MIC, NCCLS broth microdilution assay; assay type: cell-based; details: A = B. cereus ATCC 11778
Description: (§2) In vitro biological activity data were collected for a variety of microorganisms, including Bacillus cereus (ATCC 11778), Staphylococcus aureus (ATCC 27660, a methicillin resistant strain (MRSA); ATCC 13709, a methicillin sensitive strain (MSSA)); Streptococcus pneumoniae (ATCC 51422, a penicillin resistant strain (PRSP)), Enterococcus faecium (ATCC 51559, a vancomycin resistant strain (VRE)), and Staphylococcus epidermidis (ATCC 12228). Additionally, antifungal activity data were collected for Candida albicans (ATCC 38247).
as §1

[3] = tested on: Staphylococcus aureus (ATCC 27660, a methicillin resistant strain (MRSA)); experiment: MIC, NCCLS broth microdilution assay; assay type: cell-based; details: F = S. aureus ATCC 27660
Description: as §2, §1

[4] = tested on: Staphylococcus aureus (ATCC 13709, a methicillin sensitive strain (MSSA)); experiment: MIC, NCCLS broth microdilution assay; assay type: cell-based; details: E = S. aureus ATCC 13709
Description: as §2, §1

[5] = tested on: S. pneumoniae ATCC 49619; experiment: MIC, NCCLS broth microdilution assay; assay type: cell-based, Streptococcus pneumoniae; details: H = S. pneumoniae ATCC 49619
Procedure: as §1

[6] = tested on: Candida albicans (ATCC 38247); experiment: Antifungal MIC assay; assay type: cell-based; details: B = C. albicans ATCC 38247
Description: as §2, §1

C[C@@H]1CN(CCNC(=O)c2cc(NC(=O)c3cc(NC(=O)c4ccc(F)cc4F)cn3C)cn2C)C[C@H](C)O1 [Compound B-12]
Minimum Inhibitory Concentration (MIC) [1]: +++ (+++ = MIC ≦ 4) | Minimum Inhibitory Concentration (MIC) [2]: +++ (+++ = MIC ≦ 4) | Minimum Inhibitory Concentration (MIC) [3]: +++ (+++ = MIC ≦ 4) | Minimum Inhibitory Concentration (MIC) [4]: ++ (++ = 4 < MIC < 12) | Minimum Inhibitory Concentration (MIC) [5]: +++ (+++ = MIC ≦ 4) | Minimum Inhibitory Concentration (MIC) [6]: >32 µg/mL

CCN(CC)CCNC(=O)c1cc(NC(=O)c2cc(NC(=O)c3ccc(F)cc3F)cn2C)cn1C [Compound B-13]
Minimum Inhibitory Concentration (MIC) [1]: ++ (++ = 4 < MIC < 12) | Minimum Inhibitory Concentration (MIC) [2]: + (+ = 12 ≦ MIC ≦ 32) | Minimum Inhibitory Concentration (MIC) [3]: + (+ = 12 ≦ MIC ≦ 32) | Minimum Inhibitory Concentration (MIC) [4]: ++ (++ = 4 < MIC < 12) | Minimum Inhibitory Concentration (MIC) [5]: +++ (+++ = MIC ≦ 4) | Minimum Inhibitory Concentration (MIC) [6]: >32 µg/mL

Cn1cc(NC(=O)c2cc(NC(=O)c3ccc(F)cc3F)cn2C)cc1C(=O)NCCN1CCCCC1 [Compound B-14]
Minimum Inhibitory Concentration (MIC) [1]: +++ (+++ = MIC ≦ 4) | Minimum Inhibitory Concentration (MIC) [2]: ++ (++ = 4 < MIC < 12) | Minimum Inhibitory Concentration (MIC) [3]: +++ (+++ = MIC ≦ 4) | Minimum Inhibitory Concentration (MIC) [4]: +++ (+++ = MIC ≦ 4) | Minimum Inhibitory Concentration (MIC) [5]: +++ (+++ = MIC ≦ 4) | Minimum Inhibitory Concentration (MIC) [6]: >32 µg/mL

CN(C)CC(C)(C)CNC(=O)c1cc(NC(=O)c2cc(NC(=O)c3ccc(F)cc3F)cn2C)cn1C [Compound B-15]
Minimum Inhibitory Concentration (MIC) [1]: >32 µg/mL | Minimum Inhibitory Concentration (MIC) [2]: >32 µg/mL | Minimum Inhibitory Concentration (MIC) [3]: >32 µg/mL | Minimum Inhibitory Concentration (MIC) [4]: >32 µg/mL | Minimum Inhibitory Concentration (MIC) [5]: + (+ = 12 ≦ MIC ≦ 32) | Minimum Inhibitory Concentration (MIC) [6]: >32 µg/mL

Cn1cc(NC(=O)c2cc(NC(=O)c3ccc(F)cc3F)cn2C)cc1C(=O)NCCN1CCCC1 [Compound B-16]
Minimum Inhibitory Concentration (MIC) [1]: +++ (+++ = MIC ≦ 4) | Minimum Inhibitory Concentration (MIC) [2]: ++ (++ = 4 < MIC < 12) | Minimum Inhibitory Concentration (MIC) [3]: ++ (++ = 4 < MIC < 12) | Minimum Inhibitory Concentration (MIC) [4]: ++ (++ = 4 < MIC < 12) | Minimum Inhibitory Concentration (MIC) [5]: +++ (+++ = MIC ≦ 4) | Minimum Inhibitory Concentration (MIC) [6]: >32 µg/mL

Cn1cc(NC(=O)c2cc(NC(=O)c3cc(NC(=O)c4ccc(F)cc4F)cn3C)cn2C)cc1C(=O)NCCc1cccc[n+]1C [Compound B-17]
Minimum Inhibitory Concentration (MIC) [1]: + (+ = 12 ≦ MIC ≦ 32) | Minimum Inhibitory Concentration (MIC) [2]: +++ (+++ = MIC ≦ 4) | Minimum Inhibitory Concentration (MIC) [3]: ++ (++ = 4 < MIC < 12) | Minimum Inhibitory Concentration (MIC) [4]: ++ (++ = 4 < MIC < 12) | Minimum Inhibitory Concentration (MIC) [5]: ++ (++ = 4 < MIC < 12) | Minimum Inhibitory Concentration (MIC) [6]: >32 µg/mL

Cn1cc(NC(=O)c2cc(NC(=O)c3cc(NC(=O)c4ccc(F)cc4F)cn3C)cn2C)cc1C(=O)NCCN1CCC(O)CC1 [Compound B-19]
Minimum Inhibitory Concentration (MIC) [1]: +++ (+++ = MIC ≦ 4) | Minimum Inhibitory Concentration (MIC) [2]: +++ (+++ = MIC ≦ 4) | Minimum Inhibitory Concentration (MIC) [3]: +++ (+++ = MIC ≦ 4) | Minimum Inhibitory Concentration (MIC) [4]: +++ (+++ = MIC ≦ 4) | Minimum Inhibitory Concentration (MIC) [5]: +++ (+++ = MIC ≦ 4) | Minimum Inhibitory Concentration (MIC) [6]: >32 µg/mL

C[C@@H]1CCC[C@H](C)N1CCNC(=O)c1cc(NC(=O)c2cc(NC(=O)c3cc(NC(=O)c4ccc(F)cc4F)cn3C)cn2C)cn1C [Compound B-20]
Minimum Inhibitory Concentration (MIC) [1]: + (+ = 12 ≦ MIC ≦ 32) | Minimum Inhibitory Concentration (MIC) [2]: +++ (+++ = MIC ≦ 4) | Minimum Inhibitory Concentration (MIC) [3]: ++ (++ = 4 < MIC < 12) | Minimum Inhibitory Concentration (MIC) [4]: +++ (+++ = MIC ≦ 4) | Minimum Inhibitory Concentration (MIC) [5]: +++ (+++ = MIC ≦ 4) | Minimum Inhibitory Concentration (MIC) [6]: >32 µg/mL

Cn1cc(NC(=O)c2cc(NC(=O)c3cc(NC(=O)c4ccc(F)cc4F)cn3C)cn2C)cc1C(=O)NCCN [Compound B-21]
Minimum Inhibitory Concentration (MIC) [1]: ++ (++ = 4 < MIC < 12) | Minimum Inhibitory Concentration (MIC) [2]: + (+ = 12 ≦ MIC ≦ 32) | Minimum Inhibitory Concentration (MIC) [3]: ++ (++ = 4 < MIC < 12) | Minimum Inhibitory Concentration (MIC) [4]: + (+ = 12 ≦ MIC ≦ 32) | Minimum Inhibitory Concentration (MIC) [5]: ++ (++ = 4 < MIC < 12) | Minimum Inhibitory Concentration (MIC) [6]: + (+ = 12 ≦ MIC ≦ 32)

Cn1cc(NC(=O)c2cc(NC(=O)c3cc(NC(=O)c4ccc(F)cc4F)cn3C)cn2C)cc1C(=O)NCCNC(=N)N [Compound B-23]
Minimum Inhibitory Concentration (MIC) [1]: +++ (+++ = MIC ≦ 4) | Minimum Inhibitory Concentration (MIC) [2]: +++ (+++ = MIC ≦ 4) | Minimum Inhibitory Concentration (MIC) [3]: +++ (+++ = MIC ≦ 4) | Minimum Inhibitory Concentration (MIC) [4]: +++ (+++ = MIC ≦ 4) | Minimum Inhibitory Concentration (MIC) [5]: +++ (+++ = MIC ≦ 4) | Minimum Inhibitory Concentration (MIC) [6]: ++ (++ = 4 < MIC < 12)

Cn1cc(NC(=O)c2cc(NC(=O)c3cc(NC(=O)c4ccc(F)cc4F)cn3C)cn2C)cc1C(=O)NCCN(CCO)CCO [Compound B-25]
Minimum Inhibitory Concentration (MIC) [1]: + (+ = 12 ≦ MIC ≦ 32) | Minimum Inhibitory Concentration (MIC) [2]: + (+ = 12 ≦ MIC ≦ 32) | Minimum Inhibitory Concentration (MIC) [3]: + (+ = 12 ≦ MIC ≦ 32) | Minimum Inhibitory Concentration (MIC) [4]: + (+ = 12 ≦ MIC ≦ 32) | Minimum Inhibitory Concentration (MIC) [5]: +++ (+++ = MIC ≦ 4) | Minimum Inhibitory Concentration (MIC) [6]: >32 µg/mL

Cn1cc(NC(=O)c2cc(NC(=O)c3cc(NC(=O)c4ccc(F)cc4F)cn3C)cn2C)cc1C(=O)NCCN1CCNCC1 [Compound B-28]
Minimum Inhibitory Concentration (MIC) [1]: + (+ = 12 ≦ MIC ≦ 32) | Minimum Inhibitory Concentration (MIC) [2]: + (+ = 12 ≦ MIC ≦ 32) | Minimum Inhibitory Concentration (MIC) [3]: + (+ = 12 ≦ MIC ≦ 32) | Minimum Inhibitory Concentration (MIC) [4]: + (+ = 12 ≦ MIC ≦ 32) | Minimum Inhibitory Concentration (MIC) [5]: +++ (+++ = MIC ≦ 4) | Minimum Inhibitory Concentration (MIC) [6]: >32 µg/mL

Cn1cc(NC(=O)c2cc(NC(=O)c3cc(NC(=O)c4ccc(F)cc4F)cn3C)cn2C)cc1C(=O)NCCN1CCC(F)CC1 [Compound B-29]
Minimum Inhibitory Concentration (MIC) [1]: +++ (+++ = MIC ≦ 4) | Minimum Inhibitory Concentration (MIC) [2]: +++ (+++ = MIC ≦ 4) | Minimum Inhibitory Concentration (MIC) [3]: +++ (+++ = MIC ≦ 4) | Minimum Inhibitory Concentration (MIC) [4]: +++ (+++ = MIC ≦ 4) | Minimum Inhibitory Concentration (MIC) [5]: +++ (+++ = MIC ≦ 4) | Minimum Inhibitory Concentration (MIC) [6]: + (+ = 12 ≦ MIC ≦ 32)

Cn1cc(NC(=O)c2cc(NC(=O)c3cc(NC(=O)c4ccc(F)cc4F)cn3C)cn2C)cc1C(=O)NCC[N+]1(C)CCOCC1 [Compound B-30]
Minimum Inhibitory Concentration (MIC) [1]: >32 µg/mL | Minimum Inhibitory Concentration (MIC) [2]: +++ (+++ = MIC ≦ 4) | Minimum Inhibitory Concentration (MIC) [3]: +++ (+++ = MIC ≦ 4) | Minimum Inhibitory Concentration (MIC) [4]: +++ (+++ = MIC ≦ 4) | Minimum Inhibitory Concentration (MIC) [5]: +++ (+++ = MIC ≦ 4) | Minimum Inhibitory Concentration (MIC) [6]: + (+ = 12 ≦ MIC ≦ 32)

Cn1cc(NC(=O)c2cc(NC(=O)c3cc(NC(=O)c4ccc(F)cc4)cn3C)cn2C)cc1C(=O)NCCN1CCOCC1 [Compound B-32]
Minimum Inhibitory Concentration (MIC) [1]: ++ (++ = 4 < MIC < 12) | Minimum Inhibitory Concentration (MIC) [2]: + (+ = 12 ≦ MIC ≦ 32) | Minimum Inhibitory Concentration (MIC) [3]: + (+ = 12 ≦ MIC ≦ 32) | Minimum Inhibitory Concentration (MIC) [4]: ++ (++ = 4 < MIC < 12) | Minimum Inhibitory Concentration (MIC) [5]: ++ (++ = 4 < MIC < 12) | Minimum Inhibitory Concentration (MIC) [6]: >32 µg/mL

Cn1cc(NC(=O)c2cc(NC(=O)c3ccc(F)cc3)cn2C)cc1C(=O)NCCN1CCSCC1 [Compound B-33]
Minimum Inhibitory Concentration (MIC) [1]: ++ (++ = 4 < MIC < 12) | Minimum Inhibitory Concentration (MIC) [2]: + (+ = 12 ≦ MIC ≦ 32) | Minimum Inhibitory Concentration (MIC) [3]: + (+ = 12 ≦ MIC ≦ 32) | Minimum Inhibitory Concentration (MIC) [4]: ++ (++ = 4 < MIC < 12) | Minimum Inhibitory Concentration (MIC) [5]: +++ (+++ = MIC ≦ 4) | Minimum Inhibitory Concentration (MIC) [6]: >32 µg/mL
